In ChEMBL document CHEMBL1127169, “Syntheses of new 3-oxa-methano-PGI1 derivatives and their biological properties” (Bioorg Med Chem Lett, 1993):
≈ marks a conversion by molar mass, not a printed value.

Tests used:
Oryctolagus cuniculus [1] = species on record: Oryctolagus cuniculus; experiment: The compound was tested for inhibition of rabbit platelet aggregation induced by ADP, activity compared with PGE1 as standard was found to be <1/400; type: functional
Oryctolagus cuniculus [2] = species on record: Oryctolagus cuniculus; experiment: The compound was tested for inhibition of rabbit platelet aggregation induced by ADP, activity compared with PGE1 as standard was found to be 1/3.6; type: functional
Canis familiaris = species on record: Canis familiaris; experiment: The compound was tested for inhibition of dog platelet aggregation induced by ADP; type: functional; conditions: Canis lupus familiaris
Cavia porcellus = species on record: Cavia porcellus; experiment: The compound was tested for inhibition of guinea pig platelet aggregation induced by ADP; type: functional
Homo sapiens = species on record: Homo sapiens; experiment: The compound was tested for inhibition of human platelet aggregation induced by ADP; type: functional
Oryctolagus cuniculus [3] = species on record: Oryctolagus cuniculus; experiment: The compound was tested for inhibition of rabbit platelet aggregation induced by ADP; type: functional, organism-based
Oryctolagus cuniculus [4] = species on record: Oryctolagus cuniculus; experiment: The compound was tested for inhibition of rabbit platelet aggregation induced by arachidonic acid; type: functional
Oryctolagus cuniculus [5] = species on record: Oryctolagus cuniculus; experiment: The compound was tested for inhibition of rabbit platelet aggregation induced by collagen; type: functional
Oryctolagus cuniculus [6] = species on record: Oryctolagus cuniculus; experiment: The compound was tested for inhibition of rabbit platelet aggregation induced by ADP, activity compared with PGE1 as standard; type: functional
Rattus norvegicus = species on record: Rattus norvegicus; experiment: The compound was tested for inhibition of rat platelet aggregation induced by ADP; type: functional
Oryctolagus cuniculus [7] = species on record: Oryctolagus cuniculus; experiment: The compound was tested for inhibition of rabbit platelet aggregation induced by ADP, activity compared with PGE1 as standard was found to be 1/80.; type: functional
Oryctolagus cuniculus [8] = species on record: Oryctolagus cuniculus; experiment: The compound was tested for inhibition of rabbit platelet aggregation induced by ADP; activity compared with PGE1 as standard was found to be 1/1.2; type: functional

Compound	Relative activity (Oryctolagus cuniculus [1])	IC50 (Canis familiaris) [µg/mL]	IC50 (Cavia porcellus) [µg/mL]	IC50 (Homo sapiens) [µg/mL]	IC50 (Oryctolagus cuniculus [3]) [µg/mL]	IC50 (Oryctolagus cuniculus [4]) [µg/mL]	IC50 (Oryctolagus cuniculus [5]) [µg/mL]	IC50 (Rattus norvegicus) [µg/mL]	further results
CCCC[C@H](C)C[C@H](O)/C=C/[C@@H]1[C@H]2C[C@H](CCOCC(=O)O)C[C@H]2C[C@@H]1O	< 0.0025	–	–	–	–	–	–	–	–
CCCC[C@@H](C)C[C@H](O)/C=C/[C@@H]1[C@H]2C[C@H](CCOCC(=O)O)C[C@H]2C[C@H]1O	–	–	–	–	–	–	–	–	Relative activity (Oryctolagus cuniculus [2]): 0.278
CCCC[C@H](C)C[C@@H](O)/C=C/[C@@H]1[C@H]2C[C@H](CCOCC(=O)O)C[C@H]2C[C@H]1O	< 0.0025	–	–	–	–	–	–	–	–
CCCCC[C@H](O)/C=C/[C@H]1[C@H](O)CC(=O)[C@@H]1CCCCCCC(=O)O [ALPROSTADIL]	–	0.0038 (≈ 0.0107 µM)	0.0025 (≈ 0.00705 µM)	0.0136 (≈ 0.0384 µM)	0.0207 (≈ 0.0584 µM)	0.0359 (≈ 0.101 µM)	0.0132 (≈ 0.0372 µM)	0.0344 (≈ 0.097 µM)	Relative activity (Oryctolagus cuniculus [6]): 1
CCCCC[C@H](O)/C=C/[C@@H]1[C@H]2C[C@H](CCCCC(=O)O)C[C@H]2C[C@H]1O	–	–	–	–	–	–	–	–	Relative activity (Oryctolagus cuniculus [7]): 0.0125
CCCC[C@H](C)C[C@H](O)/C=C/[C@@H]1[C@H]2C[C@H](CCOCC(=O)O)C[C@H]2C[C@H]1O	–	0.0043 (≈ 0.0112 µM)	0.0031 (≈ 0.0081 µM)	0.0125 (≈ 0.0327 µM)	0.0241 (≈ 0.063 µM)	0.0476 (≈ 0.124 µM)	0.0183 (≈ 0.0478 µM)	0.0098 (≈ 0.0256 µM)	Relative activity (Oryctolagus cuniculus [8]): 0.833
